In ChEMBL document CHEMBL1130933, “Structure-based design of N-[2-(1-piperidinylethyl)]-N'-[2-(5-bromopyridyl)]-thiourea and N-[2-(1-piperazinylethyl)]-N'-[2-(5-bromopyridyl)]-thiourea as potent non-nucleoside inhibitors of HIV-1 reverse transcriptase” (Bioorg Med Chem Lett, 1998):

Key:
Assay type in all cases: functional
[1] = Compound was evaluated for cellular proliferation (on viability of peripheral blood mononuclear cells) using microculture tetrazolium assay (MTA).; details: Homo sapiens
[2] = Selective index was evaluated from inhibitory concentrations of compound
[3] = Inhibitory effect on p24 production in HIV-infected peripheral blood mononuclear cells.; details: Homo sapiens

IC50 [3]	Compound	IC50 [1]	Selectivity index [2]
2 nM	S=C(NCCN1CCNCC1)Nc1ccc(Br)cn1	> 100000 nM	> 50000
7 nM	S=C(NCCc1ccccn1)Nc1ccc(Br)cn1 [TROVIRDINE]	> 100000 nM	> 10000
< 1 nM	S=C(NCCN1CCCCC1)Nc1ccc(Br)cn1	> 100000 nM	> 100000

Compound	IC50 [3]	IC50 [1]	Selectivity index [2]
Cc1cn([C@H]2C[C@H](N=[N+]=[N-])[C@@H](CO)O2)c(=O)[nH]c1=O [ZIDOVUDINE]	6 nM	50000 nM	
